What was measured:
[1] = molecular target: T1, Keap1 Kelch domain (321-609) / TAMRA-labeled 16mer NRF2 peptide (ETGE motif) (Homo sapiens, UniProt Q14145); test: NRF2-Keap1 FP Assay (Keap1 Kelch fluorescence polarization); assay type: binding; settings: 20 nM Keap1 (321-609), 8 nM Tamra labeled peptide
T1 construct: the Kelch domain (321-609) of Keap1 is used
Summary of the method: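 Compound dilutions (3-fold) were incubated 1 hr at room temperature with 20 nM Keap1 Kelch (321-609) and 8 nM TAMRA-labeled ETGE 16mer peptide. Buffer was 50 mM Tris pH 8.0, 100 mM NaCl, 5 mM MgCl2, 1 mM DTT, 2 mM CHAPS, 0.005% BSA. Fluorescence polarization (mP) was normalized to controls and fitted with a four-parameter equation to give pIC50.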

[2] = molecular target: T2, full length Keap1 protein / full length NRF2 protein (Homo sapiens, UniProt Q14145); test: NRF2-Keap1 TR-FRET Low Protein Assay; assay type: binding; settings: 1.25 nM Keap1 FlagHis and 2.5 nM biotin-NRF2 added
T2 construct: full length NRF2 protein and full length Keap1 protein (Keap1 exists a dimer) are used; His
T2 sequence (Q14145 whole entry): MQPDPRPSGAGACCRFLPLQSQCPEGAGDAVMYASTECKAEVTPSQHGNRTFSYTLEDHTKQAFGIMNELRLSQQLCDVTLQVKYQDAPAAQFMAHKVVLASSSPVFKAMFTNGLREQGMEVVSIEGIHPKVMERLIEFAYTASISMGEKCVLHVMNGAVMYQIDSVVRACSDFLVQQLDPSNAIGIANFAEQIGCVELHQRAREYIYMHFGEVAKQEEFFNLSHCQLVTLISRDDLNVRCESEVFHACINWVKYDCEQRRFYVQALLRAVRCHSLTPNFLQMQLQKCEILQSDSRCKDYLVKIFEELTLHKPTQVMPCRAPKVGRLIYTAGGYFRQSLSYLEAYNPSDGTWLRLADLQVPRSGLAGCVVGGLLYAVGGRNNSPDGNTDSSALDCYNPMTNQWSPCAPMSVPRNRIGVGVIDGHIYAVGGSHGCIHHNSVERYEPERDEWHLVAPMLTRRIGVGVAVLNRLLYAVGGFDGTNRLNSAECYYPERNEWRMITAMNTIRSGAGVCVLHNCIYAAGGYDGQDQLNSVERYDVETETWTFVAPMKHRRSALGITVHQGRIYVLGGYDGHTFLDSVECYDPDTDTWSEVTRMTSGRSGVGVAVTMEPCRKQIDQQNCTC
Summary of the method: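 Flag-tagged full-length Keap1 was preincubated with compound (3-fold series) for 2.25 h at 37 °C in Tris pH 8.0/MgCl2/NaCl/BSA/DTT/CHAPS. Biotin-Avi-NRF2 (added at 2.5 nM) was then bound for 1.25 h at 4 °C. Eu-streptavidin/anti-Flag-APC TR-FRET (665/615 nm) was read after 1 h at RT, and pIC50 came from a four-parameter fit.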

T1 sequence (Q14145 321-609): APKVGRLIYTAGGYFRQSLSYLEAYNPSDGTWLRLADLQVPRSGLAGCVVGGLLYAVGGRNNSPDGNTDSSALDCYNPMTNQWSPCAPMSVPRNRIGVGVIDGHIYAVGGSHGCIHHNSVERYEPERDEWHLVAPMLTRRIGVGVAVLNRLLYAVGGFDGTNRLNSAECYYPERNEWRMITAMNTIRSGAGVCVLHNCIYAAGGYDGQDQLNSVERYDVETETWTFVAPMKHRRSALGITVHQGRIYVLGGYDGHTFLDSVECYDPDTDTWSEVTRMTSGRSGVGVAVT

Cn1cc(C2CC2c2c(C(=O)O)cnn2-c2cccc(-c3cccc(SCC4CCCCC4)c3)c2)nn1 (stereo not shown) [Example 179, 1-(3′-((Cyclohexylmethyl)thio)-[1,1′-biphenyl]-3-yl)-5-(2-(1-methyl-1H-1,2,3-triazol-4-yl)cyclopropyl)-1H-pyrazole-4-carboxylic acid]
IC50 [1]: 10 to 100 nM
IC50 [2]: 10 to 100 nM

COC(c1cccc(-c2cccc(-n3ncc(C(=O)O)c3C3CC3c3cn(C)nn3)c2)c1)C1CCCC1 (stereo not shown) [Example 183, 1-(3′-(Cyclopentyl(methoxy)methyl)-[1,1′-biphenyl]-3-yl)-5-(2-(1-methyl-1H-1,2,3-triazol-4-yl)cyclopropyl)-1H-pyrazole-4-carboxylic acid]
IC50 [1]: 10 to 100 nM
IC50 [2]: 10 to 100 nM

Cc1nn(-c2cccc(-c3cccc(OCC4CCCCC4)c3)c2)c(C2CC2c2cn(C)nn2)c1C(=O)O (stereo not shown) [Example 188, 1-(3′-(cyclohexylmethoxy)-[1,1′-biphenyl]-3-yl)-3-methyl-5-(2-(1-methyl-1H-1,2,3-triazol-4-yl)cyclopropyl)-1H-pyrazole-4-carboxylic Acid]
IC50 [1]: 100 to 1000 nM
IC50 [2]: 1000 to 10000 nM

CCC[C@@H]1CCCCN1C(=O)c1cccc(-c2cccc(-n3ncc(C(=O)O)c3C3CC3c3cn(C)nn3)n2)c1 (stereo partly drawn) [Example 196, 5-(2-(1-Methyl-1H-1,2,3-triazol-4-yl)cyclopropyl)-1-(6-(3-((R)-2-propylpiperidine-1-carbonyl)phenyl)pyridin-2-yl)-1H-pyrazole-4-carboxylic Acid]
IC50 [1]: 10 to 100 nM
IC50 [2]: < 10 nM

CCC[C@@H]1CCCCN1C(=O)c1cncc(-c2cccc(-n3ncc(C(=O)O)c3C3CC3c3cn(C)nn3)c2)c1 (stereo partly drawn) [Example 197, 5-(2-(1-Methyl-1H-1,2,3-triazol-4-yl)cyclopropyl)-1-(3-(5-((R)-2-propylpiperidine-1-carbonyl)pyridin-3-yl)phenyl)-1H-pyrazole-4-carboxylic acid]
IC50 [1]: 10 to 100 nM
IC50 [2]: < 10 nM

CCC[C@@H]1CCCCN1C(=O)c1cccc(-c2cccc(-n3nc(C)c(C(=O)O)c3C3CC3c3cn(C)nn3)c2)c1 (stereo partly drawn) [Example 202, 3-Methyl-5-(2-(1-methyl-1H-1,2,3-triazol-4-yl)cyclopropyl)-1-(3′-((R)-2-propylpiperidine-1-carbonyl)-[1,1′-biphenyl]-3-yl)-1H-pyrazole-4-carboxylic acid]
IC50 [1]: 10 to 100 nM
IC50 [2]: < 10 nM

CC1(C)CCc2cnn(-c3cccc(-c4cccc(-n5ncc(C(=O)O)c5C(F)(F)F)n4)c3)c21 [Example 204, 1-(6-(3-(6,6-Dimethyl-5,6-dihydrocyclopenta[c]pyrazol-1(4H)-yl)phenyl)pyridin-2-yl)-5-(trifluoromethyl)-1H-pyrazole-4-carboxylic Acid]
IC50 [1]: 100 to 1000 nM
IC50 [2]: 100 to 1000 nM

CCCC1(C)CCc2cnn(-c3cccc(-c4cccc(-n5ncc(C(=O)O)c5C5CC5)c4)c3)c21 (stereo not shown) [Example 205, 5-Cyclopropyl-1-(3′-(6-methyl-6-propyl-5,6-dihydrocyclopenta[c]pyrazol-1(4H)-yl)-[1,1′-biphenyl]-3-yl)-1H-pyrazole-4-carboxylic Acid]
IC50 [1]: 100 to 1000 nM
IC50 [2]: 10 to 100 nM

CCCCC1CCc2cnn(-c3cccc(-c4cccc(-n5ncc(C(=O)O)c5C5CC5)c4)c3)c21 (stereo not shown) [Example 206, 1-(3′-(6-Butyl-5,6-dihydrocyclopenta[c]pyrazol-1(4H)-yl)-[1,1′-biphenyl]-3-yl)-5-cyclopropyl-1H-pyrazole-4-carboxylic Acid]
IC50 [1]: 100 to 1000 nM
IC50 [2]: 100 to 1000 nM

CCc1nc(-c2cccc(-c3cccc(-n4ncc(C(=O)O)c4C4CC4)c3)c2)no1 [Example 209, 5-Cyclopropyl-1-(3′-(5-ethyl-1,2,4-oxadiazol-3-yl)-[1,1′-biphenyl]-3-yl)-1H-pyrazole-4-carboxylic Acid]
IC50 [1]: 1000 to 10000 nM
IC50 [2]: 1000 to 10000 nM

Cc1nnc(-c2cccc(-c3cccc(-n4ncc(C(=O)O)c4C4CC4)c3)c2)o1 [Example 210, 5S-Cyclopropyl-1-(3′-(5-methyl-1,3,4-oxadiazol-2-yl)-[1,1′-biphenyl]-3-yl)-1H-pyrazole-4-carboxylic acid]
IC50 [1]: > 10000 nM
IC50 [2]: 10000 to 100000 nM

— patent US10364256B2 (GlaxoSmithKline Intellectual Property Development Limited, priority 2015, dated 2019)
